This passage reports Kapp results from ChEMBL document CHEMBL1139855, “Molecular recognition of DNA by rigid [N]-polynorbornane-derived bifunctional intercalators: synthesis and evaluation of their binding properties” (J Med Chem, 2007).

A short description of test [1]: Binding affinity at poly (dAdT). poly (dAdT) dsDNA polynucleotide by competition dialysis assay.
Test [2] can be described thus: Binding affinity at poly (dGdC). poly (dGdC) dsDNA polynucleotide by competition dialysis assay.
Another test deals with Escherichia coli. The test can be described thus: Binding affinity at Escherichia coli double stranded DNA by competition dialysis assay.
Test [3] can be described thus: Binding affinity at poly(dA).poly(dT) dsDNA polynucleotide by competition dialysis assay.
The subject of the next test is DNA. The test can be described thus: Binding affinity at calf thymus double stranded DNA by competition dialysis assay. Type of test: nucleic-acid assay. As to conditions: Bos taurus.
Test [4] is described as follows: Binding affinity at polyA.Poly U dsRNA polynucleotide by competition dialysis assay.
A further test deals with Triticum aestivum. The test can be described thus: Binding affinity at wheat germ single stranded RNA by competition assay.
Test [5] in a line: Binding affinity at polyA ssRNA by competition dialysis assay.

The structures appear in SMILES notation.

Take `COC(=O)C12OC(C(=O)OC)(C3C4CC(C5C(=O)N(CCNC(=O)c6cccc7cc8ccccc8nc67)C(=O)C45)C31)C1C3CC(C4C(=O)N(CCNC(=O)c5cccc6cc7ccccc7nc56)C(=O)C34)C12` (stereo unspecified): the Kapp was 13.9 10^3/M in test [1]; 9.6 10^3/M in test [2]; 6.8 10^3/M in the test on Escherichia coli; 6.8 10^3/M in test [3]; 16 10^3/M with DNA; 8.27 10^3/M in test [4]. The Kapp (in the test on Triticum aestivum; in test [5]) was 0.53 10^3/M each time.

Turning to `COC(=O)C12OC(C(=O)OC)(C3C4CC(C5C(=O)N(CCNC(=O)c6cccc7cc8ccccc8nc67)C(=O)C45)C31)C1C3CC(C4C(=O)N(CCNc5c6ccccc6nc6ccccc56)C(=O)C34)C12` (stereo unspecified), the Kapp in test [1] was 29.5 10^3/M; in test [2], 15.6 10^3/M; with Escherichia coli, 12.9 10^3/M; in test [3], 0.8 10^3/M; in the test on DNA, 23.1 10^3/M; in test [4], 0.27 10^3/M. For the same molecule, the Kapp (in the test with Triticum aestivum; in test [5]) was 0.27 10^3/M in each case.

Regarding `COC(=O)C12OC(C(=O)OC)(C3C4CC(C5C(=O)N(CCNc6c7ccccc7nc7ccccc67)C(=O)C45)C31)C1C3CC(C4C(=O)N(CCN5C(=O)c6cccc7cccc(c67)C5=O)C(=O)C34)C12` (stereo unspecified), the Kapp in test [1] is 14.4 10^3/M; in test [2] it was 8.13 10^3/M; in the test with Escherichia coli, 14.9 10^3/M; in test [3], 3.87 10^3/M; in the test on DNA it was 8.13 10^3/M; in test [4], 0.8 10^3/M. The Kapp in the test with Triticum aestivum is 7.6 10^3/M; in test [5] it was 0.8 10^3/M.

Consider `O=C1C2C3C=CC(C3)C2C(=O)N1CCNc1c2ccccc2nc2ccccc12` (stereo unspecified), for which the Kapp in test [1] was 12.1 10^3/M; in test [2], 3.47 10^3/M; in the test with Escherichia coli, 3.47 10^3/M; in test [3] it was 0.53 10^3/M; in the test on DNA, 6.27 10^3/M; in test [4], 1.47 10^3/M. The Kapp in the test on Triticum aestivum was 2.4 10^3/M; in test [5], 0 10^3/M.

As to `COC(=O)C12OC(C(=O)OC)(C3C4CC(C5C(=O)N(CCNc6c7ccccc7nc7ccccc67)C(=O)C45)C31)C1C3CC(C12)C1C3C2(C(=O)OC)OC1(C(=O)OC)C1C3CC(C4C(=O)N(CCNc5c6ccccc6nc6ccccc56)C(=O)C34)C12` (stereo unspecified), the Kapp in test [1] was 31.7 10^3/M; in test [2] it was 26.4 10^3/M; in the test on Escherichia coli, 25.7 10^3/M; in test [3], 23.7 10^3/M; in the test on DNA, 30.4 10^3/M; in test [4] it was 25.5 10^3/M. In addition, the Kapp was 5.33 10^3/M in the test with Triticum aestivum and 1.47 10^3/M in test [5].

As for `FC(F)(F)C12OC(C(F)(F)F)(C3C4CC(C5CN(CCNc6c7ccccc7nc7ccccc67)CC54)C31)C1C3CC(C4CN(CCNc5c6ccccc6nc6ccccc56)CC43)C12` (stereo unspecified), the Kapp in test [1] is 29.5 10^3/M; in test [2], 27.6 10^3/M; with Escherichia coli, 19.1 10^3/M; in test [3] it was 19.6 10^3/M; in the test on DNA, 20.3 10^3/M; in test [4], 0.53 10^3/M. Besides, the Kapp is 0.53 10^3/M with Triticum aestivum and 1.73 10^3/M in test [5].

Take `COC(=O)C12OC(C(=O)OC)(C3C4CC(C5C(=O)N(CCNc6c7ccccc7nc7ccccc67)C(=O)C45)C31)C1C3CC(C4C(=O)N(CCNc5c6ccccc6nc6ccccc56)C(=O)C34)C12` (stereo unspecified): the Kapp in test [1] was 38.9 10^3/M; in test [2] it was 28.4 10^3/M; in the test on Escherichia coli, 32.8 10^3/M; in test [3], 16.4 10^3/M; with DNA it was 30.4 10^3/M; in test [4], 19.2 10^3/M. Also, the Kapp is 8.8 10^3/M in the test on Triticum aestivum and 2.93 10^3/M in test [5].
